The values below come from US10485773B2, “Benzenesulfonamide derivatives and method for treating cancer” (GONGWIN BIOPHARM HOLDINGS CO., LTD., priority 2016, dated 2019).

In brackets after ≈: the same amount, converted by molar mass. Several values for one entry are separate records, joined by “and”; a condition that tells them apart may be missing. Equal entries are not always repeated. Bounds are passed on as bounds.

Test system in the first series: not listed separately
Kind of series: first dissolution test in DMSO or water. To be noted: DMSO, organic solvent or mixture, thermodynamic from solid. The method, then: Each of the powder of p-TSA derivatives was duplicated, placed in each 15 mL centrifuge tube, followed by adding 200 μL DMSO or 200 μL water and shaking for 10 to 20 seconds for dissolution observation. If the powder was not dissolved, additional DMSO or water was added, and then the mixture was shaken. The tube was left to stand for 10 minutes for observation if the powder was still not dissolved after adding 1 mL DMSO or 1 mL water. If the powder was still not dissolved after adding 5 mL DMSO or 5 mL water, additional 1 mL DMSO or 1 mL water was added, and then the mixture was shaken for 30 seconds. If the powder was still not dissolved after adding 10 mL DMSO or 10 mL water, the tube was left to stand for 12 to 16 hours and observed on the next day. DMSO or water was added into the tube having the undissolved p-TSA derivatives up to 15 mL, followed by shaking for 30 minutes for observation.
Take `Cc1ccc(S(=O)(=O)N2CC(O)C2)cc1` [PTSA037]: the solubility (commonly how much of the substance goes into solution per volume) amounted to 832 mg/mL (≈ 3660 mM).

With `Cc1ccc(S(=O)(=O)NC2COC2)cc1` [PTSA040], the solubility is 762 mg/mL (≈ 3350 mM).

Take `Cc1ccc(S(=O)(=O)NC2CCN(Cc3ccccc3)CC2)cc1.Cl` [PTSA052i]: the solubility stood at 143 mg/mL.

Take `Cc1ccc(S(=O)(=O)N2CCC(CN)CC2)cc1.Cl` [PTSA055]: the solubility worked out at 229 mg/mL.

As to `Cc1ccc(S(=O)(=O)N2CC(C(=O)NO)C2)cc1` [PTSA067], the solubility amounted to 466 mg/mL (≈ 1720 mM).

The same series, now with this note: first dissolution test; amount for a 3M solution in 0.5 mL; DMSO, up to 15000 μL.
For `Cc1ccc(S(=O)(=O)N2CC(O)C2)cc1` [PTSA037], the “Total volume of DMSO for dissolving the p-TSA derivatives” value turned out to be 605 µL.

For `Cc1ccc(S(=O)(=O)N2CCNCC2)cc1` [PTSA038], the “Total volume of DMSO for dissolving the p-TSA derivatives” value came out at 680 µL.

Take `Cc1ccc(S(=O)(=O)NCC2(CO)COC2)cc1` [PTSA039]: the “Total volume of DMSO for dissolving the p-TSA derivatives” value is 500 µL.

On to `Cc1ccc(S(=O)(=O)NC2COC2)cc1` [PTSA040], for which the “Total volume of DMSO for dissolving the p-TSA derivatives” value amounted to 475 µL.

In the case of `Cc1ccc(S(=O)(=O)N2CC3(COC3)C2)cc1` [PTSA041], the “Total volume of DMSO for dissolving the p-TSA derivatives” value came to 4000 µL.

`COCCNS(=O)(=O)c1ccc(C)cc1` [PTSA042]: the “Total volume of DMSO for dissolving the p-TSA derivatives” value was 475 µL.

`COCCCNS(=O)(=O)c1ccc(C)cc1` [PTSA043]: the “Total volume of DMSO for dissolving the p-TSA derivatives” value was determined as 505 µL.

`Cc1ccc(S(=O)(=O)NCC(=O)O)cc1` [PTSA044]: the “Total volume of DMSO for dissolving the p-TSA derivatives” value worked out at 600 µL.

As to `Cc1ccc(S(=O)(=O)N[C@@H](C)C(=O)O)cc1` [PTSA045], the “Total volume of DMSO for dissolving the p-TSA derivatives” value was 2000 µL.

Turning to `Cc1ccc(S(=O)(=O)NC2CCN(Cc3ccccc3)CC2)cc1.Cl` [PTSA052i], the “Total volume of DMSO for dissolving the p-TSA derivatives” value amounted to 4000 µL.

As to `Cc1ccc(S(=O)(=O)N2CCC(CN)CC2)cc1.Cl` [PTSA055], the “Total volume of DMSO for dissolving the p-TSA derivatives” value amounted to 2000 µL.

Consider `Cc1ccc(S(=O)(=O)N2CC(C(=O)NO)C2)cc1` [PTSA067], for which the “Total volume of DMSO for dissolving the p-TSA derivatives” value amounted to 870 µL.

Still in this series, the particulars now being: first dissolution test; amount for a 3M solution in 0.5 mL; water, up to 15000 μL.
Turning to `Cc1ccc(S(=O)(=O)N2CC(O)C2)cc1` [PTSA037], the “Total volume of water for dissolving the p-TSA derivatives” value was “insoluble in 15000 μL”.

As for `Cc1ccc(S(=O)(=O)N2CCNCC2)cc1` [PTSA038], the “Total volume of water for dissolving the p-TSA derivatives” value was “insoluble in 15000 μL”.

Turning to `Cc1ccc(S(=O)(=O)NCC2(CO)COC2)cc1` [PTSA039], the “Total volume of water for dissolving the p-TSA derivatives” value is reported as “insoluble in 15000 μL”.

For `Cc1ccc(S(=O)(=O)NC2COC2)cc1` [PTSA040], the “Total volume of water for dissolving the p-TSA derivatives” value is “insoluble in 15000 μL”.

On to `Cc1ccc(S(=O)(=O)N2CC3(COC3)C2)cc1` [PTSA041], for which the “Total volume of water for dissolving the p-TSA derivatives” value is “insoluble in 15000 μL”.

Turning to `COCCNS(=O)(=O)c1ccc(C)cc1` [PTSA042], the “Total volume of water for dissolving the p-TSA derivatives” value was “insoluble in 15000 μL”.

With `COCCCNS(=O)(=O)c1ccc(C)cc1` [PTSA043], the “Total volume of water for dissolving the p-TSA derivatives” value is reported as “insoluble in 15000 μL”.

`Cc1ccc(S(=O)(=O)NCC(=O)O)cc1` [PTSA044]: the “Total volume of water for dissolving the p-TSA derivatives” value is listed as “insoluble in 15000 μL”.

Regarding `Cc1ccc(S(=O)(=O)N[C@@H](C)C(=O)O)cc1` [PTSA045], the “Total volume of water for dissolving the p-TSA derivatives” value is listed as “insoluble in 15000 μL”.

For the compound `Cc1ccc(S(=O)(=O)NC2CCN(Cc3ccccc3)CC2)cc1.Cl` [PTSA052i], the “Total volume of water for dissolving the p-TSA derivatives” value is given as “insoluble in 15000 μL”.

Regarding `Cc1ccc(S(=O)(=O)N2CCC(CN)CC2)cc1.Cl` [PTSA055], the “Total volume of water for dissolving the p-TSA derivatives” value was 3000 µL.

Consider `Cc1ccc(S(=O)(=O)N2CC(C(=O)NO)C2)cc1` [PTSA067], for which the “Total volume of water for dissolving the p-TSA derivatives” value is given as “insoluble in 15000 μL”.

Staying with this series, now noted: water, thermodynamic from solid.
In turn, `Cc1ccc(S(=O)(=O)N2CC(O)C2)cc1` [PTSA037] showed a solubility of under 50 mg/mL.

For the compound `Cc1ccc(S(=O)(=O)NC2COC2)cc1` [PTSA040], the solubility was under 50 mg/mL.

`Cc1ccc(S(=O)(=O)NC2CCN(Cc3ccccc3)CC2)cc1.Cl` [PTSA052i] had a solubility of under 50 mg/mL.

In the case of `Cc1ccc(S(=O)(=O)N2CCC(CN)CC2)cc1.Cl` [PTSA055], the solubility was 152 mg/mL.

`Cc1ccc(S(=O)(=O)N2CC(C(=O)NO)C2)cc1` [PTSA067] had a solubility of under 50 mg/mL.

Another series has as its system human non-small-cell lung cancer cell lines H460. Kind of series: SRB growth inhibition of lung cancer cells. The class given is cell-based. The following applies: Homo sapiens, NCI-H460, 48 h, derivative dissolved in DMSO; 48 hours; SRB; read-out: IC50 of H460 in DMSO. The method, then: (§1) After letting to stand for 10 minutes at room temperature, the supernatant of each well was removed, and each well was washed with 200 μL H2O once. […] Each of the plates was then placed in the laminar flow cabinet for 1 hour for air dry. 50 μL 0.4% sulforhodamine B (SRB) dye was added into each well of the 96-well plate. […] Each of the plates was then placed in the laminar flow cabinet for 40 minutes to 1 hour for air dry. 1×Tris-Base solution with pH 7.0 to 7.4 was added to each well of the 96-well plate to dissolve the protein complex formed in the bottom of each well, followed by tapping the 96-well plate, allowing the complex in each well to be dissolved uniformly. Absorption of each well under 515 nm was read. […] Each of the experimental group was performed in triplet.
In the case of `Cc1ccc(S(=O)(=O)N2CC(O)C2)cc1` [PTSA037], the half-maximal inhibitory concentration (IC50) (as a rule, the point on the concentration scale where inhibition reaches its midpoint) stood at 288 µM.

On to `Cc1ccc(S(=O)(=O)N2CCNCC2)cc1` [PTSA038], for which the IC50 was determined as 1620 µM.

On to `Cc1ccc(S(=O)(=O)NCC2(CO)COC2)cc1` [PTSA039], for which the 50% inhibitory concentration (IC50) turned out to be 4160 µM.

Consider `Cc1ccc(S(=O)(=O)NC2COC2)cc1` [PTSA040], for which the IC50 was 431 µM.

For the compound `Cc1ccc(S(=O)(=O)N2CC3(COC3)C2)cc1` [PTSA041], the IC50 is over 2000 µM.

As to `COCCNS(=O)(=O)c1ccc(C)cc1` [PTSA042], the IC50 is 2490 µM.

With `COCCCNS(=O)(=O)c1ccc(C)cc1` [PTSA043], the IC50 stood at 1610 µM.

As to `Cc1ccc(S(=O)(=O)NCC(=O)O)cc1` [PTSA044], the half-maximal inhibitory concentration (IC50) worked out at 7930 µM.

With `Cc1ccc(S(=O)(=O)N[C@@H](C)C(=O)O)cc1` [PTSA045], the concentration for half-maximal inhibition (IC50) is over 3000 µM.

With `Cc1ccc(S(=O)(=O)NC2CCN(Cc3ccccc3)CC2)cc1.Cl` [PTSA052i], the concentration for half-maximal inhibition (IC50) was found to be 141 µM.

With `Cc1ccc(S(=O)(=O)N2CCC(CN)CC2)cc1.Cl` [PTSA055], the IC50 turned out to be 617 µM.

Take `Cc1ccc(S(=O)(=O)N2CC(C(=O)NO)C2)cc1` [PTSA067]: the 50% inhibitory concentration (IC50) is 273 µM.

The same series, now with this note: Homo sapiens, NCI-H460, 48 h, derivative dissolved in water; 48 hours; SRB; read-out: IC50 of H460 in water.
In the case of `Cc1ccc(S(=O)(=O)N2CCC(CN)CC2)cc1.Cl` [PTSA055], the IC50 was 651 µM.

Still in this series, the particulars now being: derivative dissolved in DMSO; 48 hours; SRB; read-out: IC50 of H460 in DMSO.
Regarding `Cc1ccc(S(=O)(=O)N2CC(O)C2)cc1` [PTSA037], the 50% inhibitory concentration (IC50) is 259 µM.

In the case of `Cc1ccc(S(=O)(=O)NC2COC2)cc1` [PTSA040], the half-maximal inhibitory concentration (IC50) is 406 µM.

The subject of the next series is human liver cancer cell lines Hep3B. Kind of series: SRB growth inhibition of liver cancer cells. Type of series: cell-based. The following applies: Homo sapiens, Hep3B, 48 h, derivative dissolved in DMSO; 48 hours; SRB; read-out: IC50 of Hep3B in DMSO. The method, then: as §1
Consider `Cc1ccc(S(=O)(=O)N2CC(O)C2)cc1` [PTSA037], for which the IC50 is 265 µM.

Take `Cc1ccc(S(=O)(=O)N2CCNCC2)cc1` [PTSA038]: the IC50 came to 1570 µM.

Regarding `Cc1ccc(S(=O)(=O)NCC2(CO)COC2)cc1` [PTSA039], the half-maximal inhibitory concentration (IC50) came to 3740 µM.

`Cc1ccc(S(=O)(=O)NC2COC2)cc1` [PTSA040]: the IC50 came out at 329 µM.

`Cc1ccc(S(=O)(=O)N2CC3(COC3)C2)cc1` [PTSA041]: the concentration for half-maximal inhibition (IC50) was over 2000 µM.

For `COCCNS(=O)(=O)c1ccc(C)cc1` [PTSA042], the IC50 worked out at 2750 µM.

For the compound `COCCCNS(=O)(=O)c1ccc(C)cc1` [PTSA043], the 50% inhibitory concentration (IC50) was determined as 1840 µM.

In the case of `Cc1ccc(S(=O)(=O)NCC(=O)O)cc1` [PTSA044], the IC50 is 9110 µM.

As for `Cc1ccc(S(=O)(=O)N[C@@H](C)C(=O)O)cc1` [PTSA045], the IC50 is over 3000 µM.

Take `Cc1ccc(S(=O)(=O)NC2CCN(Cc3ccccc3)CC2)cc1.Cl` [PTSA052i]: the IC50 worked out at 137 µM.

For the compound `Cc1ccc(S(=O)(=O)N2CCC(CN)CC2)cc1.Cl` [PTSA055], the IC50 stood at 596 µM.

Turning to `Cc1ccc(S(=O)(=O)N2CC(C(=O)NO)C2)cc1` [PTSA067], the IC50 was found to be 261 µM.

The series is the same for the next values; noted with them: Homo sapiens, Hep3B, 48 h, derivative dissolved in water; 48 hours; SRB; read-out: IC50 of Hep3B in water.
Consider `Cc1ccc(S(=O)(=O)N2CCC(CN)CC2)cc1.Cl` [PTSA055], for which the IC50 came out at 610 µM.

Staying with this series, now noted: derivative dissolved in DMSO; 48 hours; SRB; read-out: IC50 of Hep3B in DMSO.
`Cc1ccc(S(=O)(=O)N2CC(O)C2)cc1` [PTSA037]: the half-maximal inhibitory concentration (IC50) was 274 µM and 264 µM.

On to `Cc1ccc(S(=O)(=O)NC2COC2)cc1` [PTSA040], for which the IC50 is 413 µM.
